Assay results reported in the CheMixHub viscosity set.

Test: xn = mol fraction of the nth substance listed
Details: 101 kPa

CCCCOCCO + OCCOCCO
Details	viscosity [mPa·s]
293.15 K, x1 = 0.0527	34.87
293.15 K, x1 = 0.1006	31.53
293.15 K, x1 = 0.1978	25.56
293.15 K, x1 = 0.2838	21.2
293.15 K, x1 = 0.3994	16.51
293.15 K, x1 = 0.4508	14.78
293.15 K, x1 = 0.5016	13.23
293.15 K, x1 = 0.5487	11.92
293.15 K, x1 = 0.5792	11.12
293.15 K, x1 = 0.6735	8.899
293.15 K, x1 = 0.7975	6.435
293.15 K, x1 = 0.8946	4.816
293.15 K, x1 = 0.9556	3.894
298.15 K, x1 = 0.0486	27.11
298.15 K, x1 = 0.0983	24.47
298.15 K, x1 = 0.2015	19.76
298.15 K, x1 = 0.2993	16.07
298.15 K, x1 = 0.3999	12.89
298.15 K, x1 = 0.4504	11.5
298.15 K, x1 = 0.4981	10.3
298.15 K, x1 = 0.5447	9.244
298.15 K, x1 = 0.5844	8.422
298.15 K, x1 = 0.6781	6.756
298.15 K, x1 = 0.7974	5.096
298.15 K, x1 = 0.8989	3.946
298.15 K, x1 = 0.9494	3.392
303.15 K, x1 = 0.0465	19.89
303.15 K, x1 = 0.0998	17.79
303.15 K, x1 = 0.2008	14.36
303.15 K, x1 = 0.2979	11.66
303.15 K, x1 = 0.4002	9.382
303.15 K, x1 = 0.4487	8.472
303.15 K, x1 = 0.491	7.751
303.15 K, x1 = 0.5513	6.832
303.15 K, x1 = 0.6	6.167
303.15 K, x1 = 0.7032	4.949
303.15 K, x1 = 0.8025	3.971
303.15 K, x1 = 0.8829	3.29
303.15 K, x1 = 0.9536	2.765

c1ccc2c(c1)CCCC2 + CCCCCCCC
viscosity [mPa·s]
Details	x2 = 0.0997	x2 = 0.2011	x2 = 0.3013	x2 = 0.3997	x2 = 0.5003	x2 = 0.5995	x2 = 0.7001	x2 = 0.8014	x2 = 0.8955
293.15 K	1.831	1.527	1.303	1.143	0.976	0.85	0.747	0.673	0.612
298.15 K	1.675	1.405	1.207	1.063	0.918	0.811	0.702	0.635	0.58
303.15 K	1.533	1.294	1.118	0.989	0.857	0.762	0.662	0.599	0.55
313.15 K	1.308	1.117	0.971	0.866	0.757	0.675	0.592	0.539	0.496
